In patent publication US9108944B2, “Androgen receptor modulators and uses thereof” (ARAGON PHARMACEUTICALS, INC., priority 2010, dated 2015):

Target: T1, AR-VP16 (Homo sapiens, UniProt P10275)
T1 sequence (P10275 560-920 limits assumed): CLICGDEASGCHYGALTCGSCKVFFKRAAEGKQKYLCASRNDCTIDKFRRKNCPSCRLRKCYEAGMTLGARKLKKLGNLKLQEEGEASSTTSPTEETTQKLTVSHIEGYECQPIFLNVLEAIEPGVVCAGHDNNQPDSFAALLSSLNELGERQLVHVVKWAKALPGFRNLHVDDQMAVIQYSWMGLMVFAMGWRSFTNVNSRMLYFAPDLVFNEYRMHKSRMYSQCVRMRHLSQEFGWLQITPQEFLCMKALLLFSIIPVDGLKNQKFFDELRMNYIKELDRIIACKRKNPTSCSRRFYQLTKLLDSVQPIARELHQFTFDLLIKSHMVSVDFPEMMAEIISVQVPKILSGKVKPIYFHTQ
Assay: AR-VP16 DNA Binding Assay, antagonist mode (HepG2 cells, 0.1 nM R1881)
Format: cell-based
Experimental: Cells were transiently transfected using Lipofectin (Life Technologies) according to the manufacturer's protocol. […] Transfected cells were incubated overnight then treated with ligand. […] For antagonist assays, the compounds were serially diluted and 50 μL of compound with RPMI supplemented with charcoal stripped serum plus methyltrienolone (R1881) were added to the cells. The final R1881 concentration used in the antagonist assays was 0.1 nM. Following 48 hour incubation the medium was removed and the cells were lysed in 40 μL of lysis buffer (25 mM Tris Phosphate, 2 mM CDTA, 10% Glycerol, 0.5% Triton X-100, 2 mM DTT).

Row | SMILES | IC50
1 | CNC(=O)c1ccc(N2C(=S)N(c3ccc(C#N)c4ccccc34)C(=O)C23CCC3)cc1F [Compound 95, 4-(7-(4-Cyanonaphthalen-1-yl)-8-oxo-6-thioxo-5,7-diazaspiro[3.4]octan-5-yl)-2-fluoro-N-methylbenzamide] | < 1000 nM
2 | Cc1cncc(-c2ccc(N3C(=S)N(c4cnc(C#N)c(C)c4)C(=O)C34CCC4)cc2)c1 [Compound 98, 3-Methyl-5-(5-(4-(5-methylpyridin-3-yl)phenyl)-8-oxo-6-thioxo-5,7-diazaspiro[3.4]octan-7-yl)picolinonitrile] | < 1000 nM
3 | CC1(C)C(=O)N(c2cnc(C#N)c(C(F)(F)F)c2)C(=S)N1c1ccc(O)cc1 [Compound 100, 5-(3-(4-Hydroxyphenyl)-4,4-dimethyl-5-oxo-2-thioxoimidazolidin-1-yl)-3-(trifluoromethyl)picolinonitrile] | < 1000 nM
4 | Cc1cc(N2C(=O)C3(CCC3)N(c3ccc(N(C)C4CCN(C)CC4)cc3)C2=S)cnc1C#N [Compound 102, 3-Methyl-5-(5-(4-(methyl(1-methylpiperidin-4-yl)amino)phenyl)-8-oxo-6-thioxo-5,7-diazaspiro[3.4]octan-7-yl)picolinonitrile] | > 1000 nM
5 | Cc1cc(N2C(=O)C3(CCC3)N(c3ccc(-c4cncnc4)cc3)C2=S)cnc1C#N [Compound 103, 3-Methyl-5-(8-oxo-5-(4-(pyrimidin-5-yl)phenyl)-6-thioxo-5,7-diazaspiro[3.4]octan-7-yl)picolinonitrile] | < 1000 nM
6 | CNC(=O)c1ccc(N2C(=S)N(c3cnc(C#N)c(C)c3)C(=O)C23CCC3)cc1Cl [Compound 108, 2-Chloro-4-(7-(6-cyano-5-methylpyridin-3-yl)-8-oxo-6-thioxo-5,7-diazaspiro[3.4]octan-5-yl)-N-methylbenzamide] | < 1000 nM
7 | CNC(=O)c1ccc(N2C(=S)N(c3cnc(C#N)c(C)c3)C(=O)C23CCC3)cc1C(F)(F)F [Compound 109, 4-(7-(6-Cyano-5-methylpyridin-3-yl)-8-oxo-6-thioxo-5,7-diazaspiro[3.4]octan-5-yl)-N-methyl-2-(trifluoromethyl)benzamide] | < 1000 nM
8 | N#Cc1ncc(N2C(=O)C3(CCC3)N(c3cccc4ccccc34)C2=S)cc1C(F)(F)F [Compound 110, 5-(5-(Naphthalen-1-yl)-8-oxo-6-thioxo-5,7-diazaspiro[3.4]octan-7-yl)-3-(trifluoromethyl)picolinonitrile] | < 1000 nM
9 | Cc1cc(N2C(=O)C3(CCC3)N(c3ccc(C4CCOCC4)cc3)C2=S)cnc1C#N [Compound 112, 3-Methyl-5-(8-oxo-5-(4-(tetrahydro-2H-pyran-4-yl)phenyl)-6-thioxo-5,7-diazaspiro[3.4]octan-7-yl)picolinonitrile] | < 1000 nM
10 | Cc1ccc(N2C(=S)N(c3cc(C#N)n(C)c3)C(=O)C23CCC3)cc1 [Compound 114, 1-Methyl-4-(8-oxo-6-thioxo-5-(p-tolyl)-5,7-diazaspiro[3.4]octan-7-yl)-1H-pyrrole-2-carbonitrile] | > 1000 nM
11 | CC(C)(C)OC(=O)N1CCN(c2ccc(N3C(=S)N(c4cnc(C#N)c(C(F)(F)F)c4)C(=O)C34CCC4)cc2)CC1 [Compound 119, tert-Butyl 4-(4-(7-(6-cyano-5-(trifluoromethyl)pyridin-3-yl)-8-oxo-6-thioxo-5,7-diazaspiro[3.4]octan-5-yl)phenyl)piperazine-1-carboxylate] | < 1000 nM
12 | CNS(=O)(=O)c1ccc(N2C(=S)N(c3cnc(C#N)c(C(F)(F)F)c3)C(=O)C23CCC3)cc1 [Compound 120, 4-(7-(6-Cyano-5-(trifluoromethyl)pyridin-3-yl)-8-oxo-6-thioxo-5,7-diazaspiro[3.4]octan-5-yl)-N-methylbenzenesulfonamide] | > 1000 nM
13 | CN1CCN(CCCc2ccc(N3C(=S)N(c4cnc(C#N)c(C(F)(F)F)c4)C(=O)C34CCC4)cc2)CC1 [Compound 124, 5-(5-(4-(3-(4-Methylpiperazin-1-yl)propyl)phenyl)-8-oxo-6-thioxo-5,7-diazaspiro[3.4]octan-7-yl)-3-(trifluoromethyl)picolinonitrile] | < 1000 nM
14 | N#Cc1ncc(N2C(=O)C3(CCC3)N(c3ccc(OCCN4CCCC4)c(F)c3)C2=S)cc1C(F)(F)F [Compound 127, 5-(5-(3-Fluoro-4-(2-(pyrrolidin-1-yl)ethoxy)phenyl)-8-oxo-6-thioxo-5,7-diazaspiro[3.4]octan-7-yl)-3-(trifluoromethyl)picolinonitrile] | < 1000 nM
15 | N#Cc1ncc(N2C(=O)C3(CCC3)N(c3ccc(OCCCC(F)(F)C(F)(F)F)c(F)c3)C2=S)cc1C(F)(F)F [Compound 134, 5-(5-(3-Fluoro-4-((4,4,5,5,5-pentafluoropentyl)oxy)phenyl)-8-oxo-6-thioxo-5,7-diazaspiro[3.4]octan-7-yl)-3-(trifluoromethyl)picolinonitrile] | < 1000 nM
16 | N#Cc1ncc(N2C(=O)C3(CCC3)N(c3ccc(OCCCOCc4ccccc4)c(F)c3)C2=S)cc1C(F)(F)F [Compound 135, 5-(5-(4-(3-(Benzyloxy)propoxy)-3-fluorophenyl)-8-oxo-6-thioxo-5,7-diazaspiro[3.4]octan-7-yl)-3-(trifluoromethyl)picolinonitrile] | < 1000 nM
17 | Cc1ccccc1CCOc1ccc(N2C(=S)N(c3cnc(C#N)c(C(F)(F)F)c3)C(=O)C23CCC3)cc1F [Compound 137, 5-(5-(3-Fluoro-4-(2-methylphenethoxy)phenyl)-8-oxo-6-thioxo-5,7-diazaspiro[3.4]octan-7-yl)-3-(trifluoromethyl)picolinonitrile] | < 1000 nM
18 | N#Cc1ncc(N2C(=O)C3(CCC3)N(c3ccc(OCCC(F)(F)C(F)(F)F)c(F)c3)C2=S)cc1C(F)(F)F [Compound 139, 5-(5-(3-Fluoro-4-(3,3,4,4,4-pentafluorobutoxy)phenyl)-8-oxo-6-thioxo-5,7-diazaspiro[3.4]octan-7-yl)-3-(trifluoromethyl)picolinonitrile] | < 1000 nM
19 | N#Cc1ncc(N2C(=O)C3(CCC3)N(c3ccc(OCCc4ccncc4)c(F)c3)C2=S)cc1C(F)(F)F [Compound 142, 5-(5-(3-Fluoro-4-(2-(pyridin-4-yl)ethoxy)phenyl)-8-oxo-6-thioxo-5,7-diazaspiro[3.4]octan-7-yl)-3-(trifluoromethyl)picolinonitrile] | < 1000 nM
20 | N#Cc1ncc(N2C(=O)C3(CCC3)N(c3ccc(OCCCc4cccnc4)c(F)c3)C2=S)cc1C(F)(F)F [Compound 145, 5-(5-(3-Fluoro-4-(3-(pyridin-3-yl)propoxy)phenyl)-8-oxo-6-thioxo-5,7-diazaspiro[3.4]octan-7-yl)-3-(trifluoromethyl)picolinonitrile] | < 1000 nM
21 | N#Cc1ncc(N2C(=O)C3(CCC3)N(c3ccc(OCc4ccccn4)c(F)c3)C2=S)cc1C(F)(F)F [Compound 147, 5-(5-(3-Fluoro-4-(pyridin-2-ylmethoxy)phenyl)-8-oxo-6-thioxo-5,7-diazaspiro[3.4]octan-7-yl)-3-(trifluoromethyl)picolinonitrile] | < 1000 nM
22 | N#Cc1ncc(N2C(=O)C3(CCC3)N(c3ccc(OCc4cccnc4)c(F)c3)C2=S)cc1C(F)(F)F [Compound 148, 5-(5-(3-Fluoro-4-(pyridin-3-ylmethoxy)phenyl)-8-oxo-6-thioxo-5,7-diazaspiro[3.4]octan-7-yl)-3-(trifluoromethyl)picolinonitrile] | < 1000 nM
